Test results from US7524869B2, “Taxanes having a C10 ester substituent” (Florida State University Research Foundation, Inc., priority 2000, dated 2009).

System: HCT116
Test: In vitro cytotoxicity measured by the cell colony formation assay
Assay type: cell-based
Conditions: HCT116 cells, 72 h drug incubation, colonies counted after 7 days; ID50 = drug concentration producing 50% inhibition of colony formation; read-out: IN VITRO ID 50 (nm) HCT116

Row | Structure (SMILES) | IC50 [nM]
1 | CCC(=O)O[C@H]1C(=O)[C@@]2(C)C([C@H](OC(=O)c3ccccc3)[C@]3(O)C[C@H](OC(=O)[C@H](O)[C@@H](NC(=O)c4cccs4)c4ccco4)C(C)=C1C3(C)C)[C@]1(OC(C)=O)CO[C@@H]1C[C@@H]2O (some centres unmarked) [Compound 3644] | < 1
2 | CCCC(=O)O[C@H]1C(=O)[C@@]2(C)C([C@H](OC(=O)c3ccccc3)[C@]3(O)C[C@H](OC(=O)[C@H](O)[C@@H](NC(=O)c4cccs4)c4ccco4)C(C)=C1C3(C)C)[C@]1(OC(C)=O)CO[C@@H]1C[C@@H]2O (some centres unmarked) [Compound 3656] | < 1
3 | CC(=O)O[C@@]12CO[C@@H]1C[C@H](O)[C@@]1(C)C(=O)[C@H](OC(=O)C3CC3)C3=C(C)[C@@H](OC(=O)[C@H](O)[C@@H](NC(=O)c4cccs4)c4ccco4)C[C@@](O)([C@@H](OC(=O)c4ccccc4)C12)C3(C)C (some centres unmarked) [Compound 3663] | < 1
4 | CCOC(=O)N[C@@H](c1ccco1)[C@@H](O)C(=O)O[C@H]1C[C@@]2(O)[C@@H](OC(=O)c3ccccc3)C3[C@](C)(C(=O)[C@H](OC(=O)C4CC4)C(=C1C)C2(C)C)[C@@H](O)C[C@H]1OC[C@@]31OC(C)=O (some centres unmarked) [Compound 3677] | < 1
5 | CCCC(=O)O[C@H]1C(=O)[C@@]2(C)C([C@H](OC(=O)c3ccccc3)[C@]3(O)C[C@H](OC(=O)[C@H](O)[C@@H](NC(=O)c4ccco4)c4ccco4)C(C)=C1C3(C)C)[C@]1(OC(C)=O)CO[C@@H]1C[C@@H]2O (some centres unmarked) [Compound 3686] | < 1
6 | CCCC(=O)O[C@H]1C(=O)[C@@]2(C)C([C@H](OC(=O)c3ccccc3)[C@]3(O)C[C@H](OC(=O)[C@H](O)[C@@H](NC(=O)OCC)c4ccco4)C(C)=C1C3(C)C)[C@]1(OC(C)=O)CO[C@@H]1C[C@@H]2O (some centres unmarked) [Compound 3693] | < 1
7 | CCC(=O)O[C@H]1C(=O)[C@@]2(C)C([C@H](OC(=O)c3ccccc3)[C@]3(O)C[C@H](OC(=O)[C@H](O)[C@@H](NC(=O)c4ccco4)c4ccco4)C(C)=C1C3(C)C)[C@]1(OC(C)=O)CO[C@@H]1C[C@@H]2O (some centres unmarked) [Compound 3818] | < 1
8 | CC(=O)O[C@@]12CO[C@@H]1C[C@H](O)[C@@]1(C)C(=O)[C@H](OC(=O)C3CC3)C3=C(C)[C@@H](OC(=O)[C@H](O)[C@@H](NC(=O)OC(C)C)c4ccco4)C[C@@](O)([C@@H](OC(=O)c4ccccc4)C12)C3(C)C (some centres unmarked) [Compound 3853] | < 1
9 | CC(=O)O[C@@]12CO[C@@H]1C[C@H](O)[C@@]1(C)C(=O)[C@H](OC(=O)C3CC3)C3=C(C)[C@@H](OC(=O)[C@H](O)[C@@H](NC(=O)c4ccco4)c4ccco4)C[C@@](O)([C@@H](OC(=O)c4ccccc4)C12)C3(C)C (some centres unmarked) [Compound 3866] | < 1
10 | CCCC(=O)O[C@H]1C(=O)[C@@]2(C)C([C@H](OC(=O)c3ccccc3)[C@]3(O)C[C@H](OC(=O)[C@H](O)[C@@H](NC(=O)OC(C)C)c4cccs4)C(C)=C1C3(C)C)[C@]1(OC(C)=O)CO[C@@H]1C[C@@H]2O (some centres unmarked) [Compound 3909] | < 1
11 | CCCC(=O)O[C@H]1C(=O)[C@@]2(C)C([C@H](OC(=O)c3ccccc3)[C@]3(O)C[C@H](OC(=O)[C@H](O)[C@@H](NC(=O)OCC(C)C)c4ccco4)C(C)=C1C3(C)C)[C@]1(OC(C)=O)CO[C@@H]1C[C@@H]2O (some centres unmarked) [Compound 3957] | < 10
12 | C/C=C/C(=O)N[C@@H](c1ccco1)[C@@H](O)C(=O)O[C@H]1C[C@@]2(O)[C@@H](OC(=O)c3ccccc3)C3[C@](C)(C(=O)[C@H](OC(=O)C4CC4)C(=C1C)C2(C)C)[C@@H](O)C[C@H]1OC[C@@]31OC(C)=O (some centres unmarked) [Compound 3971] | < 1
13 | C/C=C/C(=O)N[C@@H](c1ccco1)[C@@H](O)C(=O)O[C@H]1C[C@@]2(O)[C@@H](OC(=O)c3ccccc3)C3[C@](C)(C(=O)[C@H](OC(=O)CC)C(=C1C)C2(C)C)[C@@H](O)C[C@H]1OC[C@@]31OC(C)=O (some centres unmarked) [Compound 3982] | < 1
14 | C/C=C/C(=O)N[C@@H](c1ccco1)[C@@H](O)C(=O)O[C@H]1C[C@@]2(O)[C@@H](OC(=O)c3ccccc3)C3[C@](C)(C(=O)[C@H](OC(=O)CCC)C(=C1C)C2(C)C)[C@@H](O)C[C@H]1OC[C@@]31OC(C)=O (some centres unmarked) [Compound 3994] | < 1
15 | CCOC(=O)N[C@@H](c1cccs1)[C@@H](O)C(=O)O[C@H]1C[C@@]2(O)[C@@H](OC(=O)c3ccccc3)C3[C@](C)(C(=O)[C@H](OC(=O)C4CC4)C(=C1C)C2(C)C)[C@@H](O)C[C@H]1OC[C@@]31OC(C)=O (some centres unmarked) [Compound 4051] | < 1
16 | CCCC(=O)N[C@@H](c1ccco1)[C@@H](O)C(=O)O[C@H]1C[C@@]2(O)[C@@H](OC(=O)c3ccccc3)C3[C@](C)(C(=O)[C@H](OC(=O)C4CC4)C(=C1C)C2(C)C)[C@@H](O)C[C@H]1OC[C@@]31OC(C)=O (some centres unmarked) [Compound 4062] | < 1
17 | CC(=O)O[C@@]12CO[C@@H]1C[C@H](O)[C@@]1(C)C(=O)[C@H](OC(=O)C3CC3)C3=C(C)[C@@H](OC(=O)[C@H](O)[C@@H](NC(=O)c4cccnc4)c4cccs4)C[C@@](O)([C@@H](OC(=O)c4ccccc4)C12)C3(C)C (some centres unmarked) [Compound 4112] | < 10
18 | CCC(=O)O[C@H]1C(=O)[C@@]2(C)C([C@H](OC(=O)c3ccccc3)[C@]3(O)C[C@H](OC(=O)[C@H](O)[C@@H](NC(=O)c4cccnc4)c4cccs4)C(C)=C1C3(C)C)[C@]1(OC(C)=O)CO[C@@H]1C[C@@H]2O (some centres unmarked) [Compound 4121] | < 10

Row | Structure (SMILES) | IC50 [nM]
19 | CCCC(=O)O[C@H]1C(=O)[C@@]2(C)C([C@H](OC(=O)c3ccccc3)[C@]3(O)C[C@H](OC(=O)[C@H](O)[C@@H](NC(=O)c4cccnc4)c4cccs4)C(C)=C1C3(C)C)[C@]1(OC(C)=O)CO[C@@H]1C[C@@H]2O (some centres unmarked) [Compound 4190] | < 10
20 | CCC(=O)O[C@H]1C(=O)[C@@]2(C)C([C@H](OC(=O)c3ccccc3)[C@]3(O)C[C@H](OC(=O)[C@H](O)[C@@H](NC(=O)c4ccncc4)c4cccs4)C(C)=C1C3(C)C)[C@]1(OC(C)=O)CO[C@@H]1C[C@@H]2O (some centres unmarked) [Compound 4207] | < 10
21 | CC(=O)O[C@@]12CO[C@@H]1C[C@H](O)[C@@]1(C)C(=O)[C@H](OC(=O)C3CC3)C3=C(C)[C@@H](OC(=O)[C@H](O)[C@@H](NC(=O)C=C(C)C)c4cccs4)C[C@@](O)([C@@H](OC(=O)c4ccccc4)C12)C3(C)C (some centres unmarked) [Compound 4329] | < 1
22 | CCC(=O)O[C@H]1C(=O)[C@@]2(C)C([C@H](OC(=O)c3ccccc3)[C@]3(O)C[C@H](OC(=O)[C@H](O)[C@@H](NC(=O)C=C(C)C)c4cccs4)C(C)=C1C3(C)C)[C@]1(OC(C)=O)CO[C@@H]1C[C@@H]2O (some centres unmarked) [Compound 4335] | < 1
23 | CCCC(=O)O[C@H]1C(=O)[C@@]2(C)C([C@H](OC(=O)c3ccccc3)[C@]3(O)C[C@H](OC(=O)[C@H](O)[C@@H](NC(=O)C=C(C)C)c4cccs4)C(C)=C1C3(C)C)[C@]1(OC(C)=O)CO[C@@H]1C[C@@H]2O (some centres unmarked) [Compound 4344] | < 1
24 | CC(=O)O[C@@]12CO[C@@H]1C[C@H](O)[C@@]1(C)C(=O)[C@H](OC(=O)C3CC3)C3=C(C)[C@@H](OC(=O)[C@H](O)[C@@H](NC(=O)OCC(C)C)c4ccoc4)C[C@@](O)([C@@H](OC(=O)c4ccccc4)C12)C3(C)C (some centres unmarked) [Compound 4665] | < 10
25 | CCCC(=O)O[C@H]1C(=O)[C@@]2(C)C([C@H](OC(=O)c3ccccc3)[C@]3(O)C[C@H](OC(=O)[C@H](O)[C@@H](NC(=O)OCC(C)C)c4ccoc4)C(C)=C1C3(C)C)[C@]1(OC(C)=O)CO[C@@H]1C[C@@H]2O (some centres unmarked) [Compound 4704] | < 10
26 | CCC(=O)O[C@H]1C(=O)[C@@]2(C)C([C@H](OC(=O)c3ccccc3)[C@]3(O)C[C@H](OC(=O)[C@H](O)[C@@H](NC(=O)OCC(C)C)c4ccsc4)C(C)=C1C3(C)C)[C@]1(OC(C)=O)CO[C@@H]1C[C@@H]2O (some centres unmarked) [Compound 4711] | < 10
27 | CC(=O)O[C@@]12CO[C@@H]1C[C@H](O)[C@@]1(C)C(=O)[C@H](OC(=O)C3CC3)C3=C(C)[C@@H](OC(=O)[C@H](O)[C@H](C=C(C)C)NC(=O)OCC(C)C)C[C@@](O)([C@@H](OC(=O)c4ccccc4)C12)C3(C)C (some centres unmarked) [Compound 4720] | < 10
28 | CCC(=O)O[C@H]1C(=O)[C@@]2(C)C([C@H](OC(=O)c3ccccc3)[C@]3(O)C[C@H](OC(=O)[C@H](O)[C@@H](NC(=O)OCC(C)C)C4CC4)C(C)=C1C3(C)C)[C@]1(OC(C)=O)CO[C@@H]1C[C@@H]2O (some centres unmarked) [Compound 4799] | < 1
29 | CCCC(=O)O[C@H]1C(=O)[C@@]2(C)C([C@H](OC(=O)c3ccccc3)[C@]3(O)C[C@H](OC(=O)[C@H](O)[C@@H](NC(=O)OCC(C)C)C4CC4)C(C)=C1C3(C)C)[C@]1(OC(C)=O)CO[C@@H]1C[C@@H]2O (some centres unmarked) [Compound 4808] | < 10
30 | CCCC(=O)O[C@H]1C(=O)[C@@]2(C)C([C@H](OC(=O)c3ccccc3)[C@]3(O)C[C@H](OC(=O)[C@H](O)[C@@H](NC(=O)OCC(C)C)c4ccsc4)C(C)=C1C3(C)C)[C@]1(OC(C)=O)CO[C@@H]1C[C@@H]2O (some centres unmarked) [Compound 4834] | < 10
31 | C/C=C/C(=O)N[C@@H](c1ccoc1)[C@@H](O)C(=O)O[C@H]1C[C@@]2(O)[C@@H](OC(=O)c3ccccc3)C3[C@](C)(C(=O)[C@H](OC(=O)CC)C(=C1C)C2(C)C)[C@@H](O)C[C@H]1OC[C@@]31OC(C)=O (some centres unmarked) [Compound 4888] | < 1
32 | C/C=C/C(=O)N[C@@H](c1ccoc1)[C@@H](O)C(=O)O[C@H]1C[C@@]2(O)[C@@H](OC(=O)c3ccccc3)C3[C@](C)(C(=O)[C@H](OC(=O)CCC)C(=C1C)C2(C)C)[C@@H](O)C[C@H]1OC[C@@]31OC(C)=O (some centres unmarked) [Compound 4919] | < 1
33 | C/C=C/C(=O)N[C@@H](c1ccoc1)[C@@H](O)C(=O)O[C@H]1C[C@@]2(O)[C@@H](OC(=O)c3ccccc3)C3[C@](C)(C(=O)[C@H](OC(=O)C4CC4)C(=C1C)C2(C)C)[C@@H](O)C[C@H]1OC[C@@]31OC(C)=O (some centres unmarked) [Compound 4944] | < 1
34 | CC(=O)O[C@@]12CO[C@@H]1C[C@H](O)[C@@]1(C)C(=O)[C@H](OC(=O)C3CC3)C3=C(C)[C@@H](OC(=O)[C@H](O)[C@@H](NC(=O)OCC(C)C)c4ccsc4)C[C@@](O)([C@@H](OC(=O)c4ccccc4)C12)C3(C)C (some centres unmarked) [Compound 5011] | < 10
35 | C/C=C/C(=O)N[C@@H](c1ccsc1)[C@@H](O)C(=O)O[C@H]1C[C@@]2(O)[C@@H](OC(=O)c3ccccc3)C3[C@](C)(C(=O)[C@H](OC(=O)C4CC4)C(=C1C)C2(C)C)[C@@H](O)C[C@H]1OC[C@@]31OC(C)=O (some centres unmarked) [Compound 5040] | < 1
